# Reference: patent US11358952B2, “Substituted 4-aminoisoindoline-1,3-dione compounds, compositions thereof, and methods of treatment therewith” (Celgene Corporation, priority 2018, dated 2022)
# Tested on: SU-DHL-4 cell line
# Assay: SU-DHL-4 cell proliferation assay (Cell Titer-Glo viability)
# Type: cell-based
# Settings: Homo sapiens; cell viability IC50 activity level, DLBCL cell line SU-DHL-4, 120 hours post-treatment; read-out: SU-DHL-4 Act
# Summary of the method: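 SU-DHL-4 cells (500/well, RPMI-1640 + 10% FBS) exposed to 20-point compound dilutions (0.5 nM–10 μM, 0.1% DMSO) for 120 h at 37°C, 5% CO2. Viability measured by Cell Titer-Glo luminescence at t0 and at 120 h. IC50 is the concentration giving 50% of DMSO control, from a four-parameter logistic fit.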
row,Structure (SMILES),IC50 [nM]
1,"O=C1CCC(N2C(=O)c3cccc(NCc4ccc(CN5CCC(O)(c6ccccn6)CC5)cc4)c3C2=O)C(=O)N1 (stereo not shown) [Cpd 111, 2-(2,6-dioxopiperidin-3-yl)-4-(4-((4-hydroxy-4-(pyridin-2-yl)piperidin-1-yl)methyl)benzylamino)isoindoline-1,3-dione]",< 200
2,"CCC1CN(Cc2ccc(CNc3cccc4c3C(=O)N(C3CCC(=O)NC3=O)C4=O)cc2)C1 (stereo not shown) [Cpd 112, 2-(2,6-dioxopiperidin-3-yl)-4-(4-((3-ethylazetidin-1-yl)methyl)benzylamino)isoindoline-1,3-dione]",200 to 500
3,"CC(C)C1CN(Cc2ccc(CNc3cccc4c3C(=O)N(C3CCC(=O)NC3=O)C4=O)cc2)C1 (stereo not shown) [Cpd 113, 2-(2,6-dioxopiperidin-3-yl)-4-(4-((3-isopropylazetidin-1-yl)methyl)benzylamino)isoindoline-1,3-dione]",200 to 500
4,"O=C1CCC(N2C(=O)c3cccc(NCc4ccc(CN5CC6(CCC6)C5)cc4)c3C2=O)C(=O)N1 (stereo not shown) [Cpd 115, 4-(4-(2-azaspiro[3.3]heptan-2-ylmethyl)benzylamino)-2-(2,6-dioxopiperidin-3-yl)isoindoline-1,3-dione]",< 200
5,"O=C1CCC(N2C(=O)c3cccc(NCc4ccc(CN5CC6(C5)CC(F)(F)C6)cc4)c3C2=O)C(=O)N1 (stereo not shown) [Cpd 116, 4-(4-((6,6-difluoro-2-azaspiro[3.3]heptan-2-yl)methyl)benzylamino)-2-(2,6-dioxopiperidin-3-yl)isoindoline-1,3-dione]",751 to 1000
6,"O=C1CCC(N2C(=O)c3cccc(NCc4ccc(CN5CC(C(F)(F)F)C5)cc4)c3C2=O)C(=O)N1 (stereo not shown) [Cpd 117, 2-(2,6-dioxopiperidin-3-yl)-4-(4-((3-(trifluoromethyl)azetidin-1-yl)methyl)benzylamino)isoindoline-1,3-dione]",200 to 500
7,"O=C1CCC(N2C(=O)c3cccc(NCc4ccc(CN5CCN(CC6CC6)CC5)cc4F)c3C2=O)C(=O)N1 (stereo not shown) [Cpd 118, 4-(4-((4-(cyclopropylmethyl)piperazin-1-yl)methyl)-2-fluorobenzylamino)-2-(2,6-dioxopiperidin-3-yl)isoindoline-1,3-dione]",< 200
8,"O=C1CCC(N2C(=O)c3cccc(NCc4ccc(CN5CCN(c6ccc(C(F)(F)F)cn6)CC5)cc4)c3C2=O)C(=O)N1 (stereo not shown) [Cpd 119, 2-(2,6-dioxopiperidin-3-yl)-4-(4-((4-(5-(trifluoromethyl)pyridin-2-yl)piperazin-1-yl)methyl)benzylamino)isoindoline-1,3-dione]",200 to 500

# The next lines start with the values.
row,IC50 [nM],Structure (SMILES)
1,< 200,"O=C1CCC(N2C(=O)c3cccc(NCc4ccc(CN5CCC(n6cccn6)CC5)cc4F)c3C2=O)C(=O)N1 (stereo not shown) [Cpd 107, 4-(4-((4-(1H-pyrazol-1-yl)piperidin-1-yl)methyl)-2-fluorobenzylamino)-2-(2,6-dioxopiperidin-3-yl)isoindoline-1,3-dione]"
2,< 200,"O=C1CCC(N2C(=O)c3cccc(NCc4ccc(CN5CCN(c6ccc(F)cc6F)CC5)cc4F)c3C2=O)C(=O)N1 (stereo not shown) [Cpd 108, 4-(4-((4-(2,4-difluorophenyl)piperazin-1-yl)methyl)-2-fluorobenzylamino)-2-(2,6-dioxopiperidin-3-yl)isoindoline-1,3-dione]"
3,< 200,"O=C1CCC(N2C(=O)c3cccc(NCc4ccc(CN5CCN(c6ccc(F)cc6F)CC5)c(F)c4)c3C2=O)C(=O)N1 (stereo not shown) [Cpd 109, 4-(4-((4-(2,4-difluorophenyl)piperazin-1-yl)methyl)-3-fluorobenzylamino)-2-(2,6-dioxopiperidin-3-yl)isoindoline-1,3-dione]"
4,< 200,"NC(=O)c1ccc(N2CCN(Cc3ccc(CNc4cccc5c4C(=O)N(C4CCC(=O)NC4=O)C5=O)c(F)c3)CC2)cn1 (stereo not shown) [Cpd 110, 5-(4-(4-((2-(2,6-dioxopiperidin-3-yl)-1,3-dioxoisoindolin-4-ylamino)methyl)-3-fluorobenzyl)piperazin-1-yl)picolinamide]"
5,< 200,"CC(C)(C)C1CN(Cc2ccc(CNc3cccc4c3C(=O)N(C3CCC(=O)NC3=O)C4=O)cc2)C1 (stereo not shown) [Cpd 114, 4-(4-((3-tert-butylazetidin-1-yl)methyl)benzylamino)-2-(2,6-dioxopiperidin-3-yl)isoindoline-1,3-dione]"
